Tested on: HSSY-II tumor spheroid viability
Assay: Anticancer human tumor HSSY-II cell line growth inhibition;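 also: spheroids exposed to compounds for seven days before reading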;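 as to viability, T/C: percent of DMSO vehicle control viability so 100% = untreated level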
Details: spheroids with HUVEC and MSC; for IC50: curve of first compound; for viability, T/C: stronger effect = lower value; active = viability on the fitted dose curve at most 10% of control; inactive = the rest
Outline: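 Complex tumor spheroids combined malignant cells with endothelial cells and mesenchymal stem cells. DNA-damaging drugs and DNA repair inhibitors were tested alone and in combination, at half-log dilutions down from clinical Cmax (top 10 microM if Cmax unknown), 0.25% DMSO final.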

[1] = second compound 30 pM, first compound 0.0949 µM
[2] = second compound 30 pM, first compound 0.3 µM
[3] = second compound 30 pM, first compound 0.949 µM
[4] = second compound 30 pM, first compound 3 µM
[5] = second compound 94.9 pM, first compound 0.0949 µM
[6] = second compound 94.9 pM, first compound 0.3 µM
[7] = second compound 94.9 pM, first compound 0.949 µM
[8] = second compound 94.9 pM, first compound 3 µM
[9] = second compound 0.0003 µM, first compound 0.0949 µM
[10] = second compound 0.0003 µM, first compound 0.3 µM
[11] = second compound 0.0003 µM, first compound 0.949 µM
[12] = second compound 0.0003 µM, first compound 3 µM
[13] = second compound 0.000949 µM, first compound 0.0949 µM
[14] = second compound 0.000949 µM, first compound 0.3 µM
[15] = second compound 0.000949 µM, first compound 0.949 µM
[16] = second compound 0.000949 µM, first compound 3 µM
[17] = second compound 0.003 µM, first compound 0.0949 µM
[18] = second compound 0.003 µM, first compound 0.3 µM
[19] = second compound 0.003 µM, first compound 0.949 µM
[20] = second compound 0.003 µM, first compound 3 µM

O=C(c1cc(Cc2n[nH]c(=O)c3ccccc23)ccc1F)N1CCN(C(=O)C2CC2)CC1 + COc1cc2c(cc1O)CCNC21CSC2c3c(OC(C)=O)c(C)c4c(c3C(COC1=O)N1C(O)C3Cc5cc(C)c(OC)c(O)c5C(C21)N3C)OCO4
inactive: viability, T/C [1] 91.1% | viability, T/C [2] 85.6% | viability, T/C [3] 81.6% | viability, T/C [4] 50.9% | viability, T/C (second compound 30 pM, first compound 9.49 µM) 12.3% | viability, T/C [5] 73% | viability, T/C [6] 65.4% | viability, T/C [7] 49.7% | viability, T/C [8] 20.2% | viability, T/C [9] 11.3% | viability, T/C [10] 10.6%
875 nM: IC50 (second compound 94.9 pM)
< 94.9 nM: IC50 (second compound 0.0003 µM) | IC50 (second compound 0.000949 µM) | IC50 (second compound 0.003 µM)
active: viability, T/C (second compound 30 pM, first compound 30 µM) 11.1% | viability, T/C (second compound 94.9 pM, first compound 9.49 µM) 9.72% | viability, T/C (second compound 94.9 pM, first compound 30 µM) 8.42% | viability, T/C [11] 8.99% | viability, T/C [12] 8.1% | viability, T/C (second compound 0.0003 µM, first compound 9.49 µM) 7.62% | viability, T/C (second compound 0.0003 µM, first compound 30 µM) 5.94% | viability, T/C [13] 2.49% | viability, T/C [14] 1.82% | viability, T/C [15] 2.22% | viability, T/C [16] 1.13% | viability, T/C (second compound 0.000949 µM, first compound 9.49 µM) 0.5% | viability, T/C (second compound 0.000949 µM, first compound 30 µM) 0.21% | viability, T/C [17] 0.29% | viability, T/C [18] 0.34% | viability, T/C [19] 0.26% | viability, T/C [20] 0.22% | viability, T/C (second compound 0.003 µM, first compound 9.49 µM) 0.24% | viability, T/C (second compound 0.003 µM, first compound 30 µM) 0.36%
3000 nM: IC50 (second compound 30 pM)

Cn1ncnc1[C@H]1c2n[nH]c(=O)c3cc(F)cc(c23)N[C@@H]1c1ccc(F)cc1 + COc1cc2c(cc1O)CCNC21CSC2c3c(OC(C)=O)c(C)c4c(c3C(COC1=O)N1C(O)C3Cc5cc(C)c(OC)c(O)c5C(C21)N3C)OCO4
active: viability, T/C [3] 9.09% | viability, T/C [4] 6.64% | viability, T/C [7] 8.55% | viability, T/C [8] 6.28% | viability, T/C (second compound 0.0003 µM, first compound 0.00949 µM) 8.74% | viability, T/C (second compound 0.0003 µM, first compound 0.03 µM) 9.03% | viability, T/C [9] 8.23% | viability, T/C [10] 7.73% | viability, T/C [11] 6.35% | viability, T/C [12] 3.6% | viability, T/C (second compound 0.000949 µM, first compound 0.00949 µM) 2.25% | viability, T/C (second compound 0.000949 µM, first compound 0.03 µM) 1.71% | viability, T/C [13] 1.81% | viability, T/C [14] 2.07% | viability, T/C [15] 0.53% | viability, T/C [16] 0.15% | viability, T/C (second compound 0.003 µM, first compound 0.00949 µM) 0.2% | viability, T/C (second compound 0.003 µM, first compound 0.03 µM) 0.25% | viability, T/C [17] 0.2% | viability, T/C [18] 0.15% | viability, T/C [19] 0.14% | viability, T/C [20] 0.26%
36.7 nM: IC50 (second compound 30 pM)
inactive: viability, T/C (second compound 30 pM, first compound 0.00949 µM) 65.3% | viability, T/C (second compound 30 pM, first compound 0.03 µM) 53.8% | viability, T/C [1] 32% | viability, T/C [2] 14.4% | viability, T/C (second compound 94.9 pM, first compound 0.00949 µM) 32.6% | viability, T/C (second compound 94.9 pM, first compound 0.03 µM) 25.6% | viability, T/C [5] 15.6% | viability, T/C [6] 10.5%
< 9.49 nM: IC50 (second compound 94.9 pM) | IC50 (second compound 0.0003 µM) | IC50 (second compound 0.000949 µM) | IC50 (second compound 0.003 µM)

CC1COCCN1c1cc(-c2ccnn2C)c2ccnc(-c3ccn[nH]3)c2n1 (stereo not given) + CC[C@@]1(O)C(=O)OCc2c1cc1n(c2=O)Cc2cc3c(CN(C)C)c(O)ccc3nc2-1
< 31.6 nM: IC50 (second compound 0.003 µM) | IC50 (second compound 0.00949 µM) | IC50 (second compound 0.03 µM) | IC50 (second compound 0.0949 µM) | IC50 (second compound 0.3 µM)
active: viability, T/C (second compound 0.003 µM, first compound 0.0316 µM) 6.17% | viability, T/C (second compound 0.003 µM, first compound 0.1 µM) 4.36% | viability, T/C (second compound 0.003 µM, first compound 0.316 µM) 2.62% | viability, T/C (second compound 0.003 µM, first compound 1 µM) 1.92% | viability, T/C (second compound 0.003 µM, first compound 3.16 µM) 1.88% | viability, T/C (second compound 0.003 µM, first compound 10 µM) 2.35% | viability, T/C (second compound 0.00949 µM, first compound 0.0316 µM) 4.45% | viability, T/C (second compound 0.00949 µM, first compound 0.1 µM) 3.49% | viability, T/C (second compound 0.00949 µM, first compound 0.316 µM) 2.45% | viability, T/C (second compound 0.00949 µM, first compound 1 µM) 1.99% | viability, T/C (second compound 0.00949 µM, first compound 3.16 µM) 1.87% | viability, T/C (second compound 0.00949 µM, first compound 10 µM) 2.14% | viability, T/C (second compound 0.03 µM, first compound 0.0316 µM) 3.87% | viability, T/C (second compound 0.03 µM, first compound 0.1 µM) 3.3% | viability, T/C (second compound 0.03 µM, first compound 0.316 µM) 2.51% | viability, T/C (second compound 0.03 µM, first compound 1 µM) 1.83% | viability, T/C (second compound 0.03 µM, first compound 3.16 µM) 1.68% | viability, T/C (second compound 0.03 µM, first compound 10 µM) 2.01% | viability, T/C (second compound 0.0949 µM, first compound 0.0316 µM) 3.97% | viability, T/C (second compound 0.0949 µM, first compound 0.1 µM) 3.08% | viability, T/C (second compound 0.0949 µM, first compound 0.316 µM) 2.54% | viability, T/C (second compound 0.0949 µM, first compound 1 µM) 1.86% | viability, T/C (second compound 0.0949 µM, first compound 3.16 µM) 1.59% | viability, T/C (second compound 0.0949 µM, first compound 10 µM) 1.83% | viability, T/C (second compound 0.3 µM, first compound 0.0316 µM) 3.93% | viability, T/C (second compound 0.3 µM, first compound 0.1 µM) 3.43% | viability, T/C (second compound 0.3 µM, first compound 0.316 µM) 2.61% | viability, T/C (second compound 0.3 µM, first compound 1 µM) 1.6% | viability, T/C (second compound 0.3 µM, first compound 3.16 µM) 1.43% | viability, T/C (second compound 0.3 µM, first compound 10 µM) 1.82%

— PubChem BioAssay AID1845204 (Molecular Pharmacology Branch, DTP, NCI, 2023)
